In article PMC8843160 (Drug Delivery, 2022):
Values after ≈ are worked out from the molar mass of the structure shown. Where two headings read alike, the source gives them in different places.

What was measured:
[1] = Equilibrium solubility experiments; type: physicochemical
Description: The obtained complexes were vibrated by ultrasonic for 10 min then continuously shaken in a water bath at 32 °C until equilibrium.
(§1) The samples were determined by an LC-20A HPLC system (SHIMADZU, Kyoto, Japan). The separation was achieved on an InertSustain C18 column (4.6 mm × 250 mm, 5 µm, SHIMADZU, Kyoto, Japan) with the flow rate keeping at 1.0 mL/min, the column temperature maintaining at 40 °C and mobile phase consisting of methanol:water (25:75, v/v) with 0.4% phosphoric acid in water. Injection volume for each run was 50 μL, and detection wavelength was 254 nm.

[2] = In vitro skin permeation, Franz diffusion cells; type: in vitro ADME, porcine; details: donor saturated solution in isopropyl myristate; for Q24h, the cumulative amount of drug permeated per unit area at 24 h / Tlag / Jss, the steady-state flux: porcine ear skin, receptor PBS pH 7.4, 32 °C; for Tlag: linear portion of permeation curve extrapolated to the abscissa; for Jss, the steady-state flux: slope of the linear portion of the plots
Source text: According to the description in our previous report (Xu et al., [2011]), the porcine ears immediately obtained from the killed pig were supplied by local slaughterhouse (Xiangtan, China). The hair of porcine ears was carefully cut off with animal hair clippers. Then, skin grafting knife (Medical Equipment Factory of Shanghai Medical Instruments Co., Ltd., Shanghai, China) was employed to separate the skin and subcutaneous fat, and the skin of thickness in range of 0.6 ± 0.1 mm was obtained. The skin was kept frozen at −20 °C no more than 2 weeks.
Two-chamber Franz diffusion cells (receiver volume of 6.5 mL, effective diffusion area of 2.8 cm^2) were used for the in vitro transdermal experiments. The prepared skin was placed between the cell halves with the SC facing the donor cell. The receptor compartment was filled with phosphate buffered saline (pH 7.4), which was put in a water bath at 32 ± 0.5 °C and stirred with a magnetic bar at 300 rpm. The saturated solution of DCN and its ion-pair compounds in isopropyl myristate was filled in the donor cell, and a glass sheet was employed to cover the supply chamber during the in vitro permeation experiments. Since the experiment started, 1.0 mL sample was withdrawn from the receptor compartment at predetermined time interval 2, 4, 6, 8, 10, 12, 14, and 24 h. Subsequently, the equal volume of fresh PBS was replenished. These investigations were performed with different individual skin at least in triplicate.
as §1

[3] = Apparent distribution coefficient (Log P), shake-flask method; type: physicochemical; details: n-octanol/distilled water, 48 h, 32 °C
Description: as §1

[4] = aqueous buffer, thermodynamic from solid, PBS pH 7.4, 32 °C, read-out: Equilibrium solubility PBS (pH 7.4)
[5] = thermodynamic from solid, isopropyl myristate, 32 °C, read-out: Equilibrium solubility IPM
[6] = thermodynamic from solid, water, 32 °C, read-out: Equilibrium solubility Water

Row | Structure (SMILES) | Q24h, the cumulative amount of drug permeated per unit area at 24 h [2] | Tlag [2] | Jss, the steady-state flux [2] | also measured
1 | CC(=O)Oc1cccc2c1C(=O)c1c(OC(C)=O)cc(C(=O)O)cc1C2=O [DCN, Diacerein, reference compound] | 1.83 ± 0.22 µg/cm^2 | 2.68 ± 0.78 h | 0.06 ± 0.01 µg/cm^2⋅h^–1 | solubility thermodynamic at 48 h [1, 4]: 1442 ± 5.58 µg/mL (≈ 3910 µM); solubility thermodynamic at 48 h [1, 5]: 83.6 ± 18.1 µg/mL (≈ 227 µM); solubility thermodynamic at 48 h [1, 6]: 8.29 ± 0.27 µg/mL (≈ 22.5 µM); solubility thermodynamic at 48 h ([1]; water, 32 °C, read-out: Equilibrium solubility Water): ≤ 10 µg/mL
2 | CC(=O)Oc1cccc2c1C(=O)c1c(OC(C)=O)cc(C(=O)O)cc1C2=O.CCNCC [DCN-Dea] | 2.82 ± 0.49 µg/cm^2 | 4.12 ± 1.14 h | 0.10 ± 0.01 µg/cm^2⋅h^–1 | 
3 | CC(=O)Oc1cccc2c1C(=O)c1c(OC(C)=O)cc(C(=O)O)cc1C2=O.OCCNCCO [DCN-Deta] | 4.03 ± 0.71 µg/cm^2 | 2.16 ± 0.55 h | 0.11 ± 0.02 µg/cm^2⋅h^–1 | 
4 | CC(=O)Oc1cccc2c1C(=O)c1c(OC(C)=O)cc(C(=O)O)cc1C2=O.CCCCCCN [DCN-N6] | 3.86 ± 0.21 µg/cm^2 | 1.52 ± 0.36 h | 0.10 ± 0.02 µg/cm^2⋅h^–1 | 
5 | CC(=O)Oc1cccc2c1C(=O)c1c(OC(C)=O)cc(C(=O)O)cc1C2=O.CCCCCCCCN [DCN-N8] | 4.30 ± 0.63 µg/cm^2 | 2.15 ± 0.22 h | 0.14 ± 0.03 µg/cm^2⋅h^–1 | 
6 | CC(=O)Oc1cccc2c1C(=O)c1c(OC(C)=O)cc(C(=O)O)cc1C2=O.CCCCCCCCCCN [DCN-N10] | 6.41 ± 0.23 µg/cm^2 | 1.38 ± 0.14 h | 0.20 ± 0.03 µg/cm^2⋅h^–1 | 
7 | CC(=O)Oc1cccc2c1C(=O)c1c(OC(C)=O)cc(C(=O)O)cc1C2=O.CCCCCCCCCCCCN [DCN-N12] |  | 2.50 ± 0.18 h | 0.34 ± 0.02 µg/cm^2⋅h^–1 | 
8 | CC(=O)Oc1cccc2c1C(=O)c1c(OC(C)=O)cc(C(=O)O)cc1C2=O.CCCCCCCCCCCCCCN [DCN-N14] | 7.03 ± 1.56 µg/cm^2 | 1.31 ± 0.11 h | 0.24 ± 0.05 µg/cm^2⋅h^–1 | 
9 | CC(=O)Oc1cccc2c1C(=O)c1c(OC(C)=O)cc(C(=O)O)cc1C2=O.CCCCCCCCCCCCCCCCN [DCN-N16] | 6.44 ± 0.36 µg/cm^2 | 1.28 ± 0.23 h | 0.22 ± 0.01 µg/cm^2⋅h^–1 | 
10 | CC(=O)Oc1cccc2c1C(=O)c1c(OC(C)=O)cc(C(=O)O)cc1C2=O.CCCCCCCCCCCCCCCCCCN [DCN-N18] | 5.97 ± 1.25 µg/cm^2 | 1.42 ± 0.52 h | 0.20 ± 0.01 µg/cm^2⋅h^–1 | 
11 | CC(=O)Oc1cccc2c1C(=O)c1c(OC(C)=O)cc(C(=O)O)cc1C2=O.CCN(CC)CC [DCN-Tea] | 2.85 ± 0.64 µg/cm^2 | 3.39 ± 0.55 h | 0.11 ± 0.04 µg/cm^2⋅h^–1 | solubility thermodynamic at 48 h [1, 4]: 8188 ± 44.4 µg/mL; solubility thermodynamic at 48 h [1, 5]: 1385 ± 13.7 µg/mL; solubility thermodynamic at 48 h [1, 6]: 3233 ± 12.6 µg/mL
12 | CC(=O)Oc1cccc2c1C(=O)c1c(OC(C)=O)cc(C(=O)O)cc1C2=O.OCCN(CCO)CCO [DCN-Teta] | 7.89 ± 0.38 µg/cm^2 | 1.52 ± 0.48 h | 0.17 ± 0.05 µg/cm^2⋅h^–1 | transdermal permeation rate (comparison in words) ([2]; porcine ear skin in vitro): highest transdermal permeation rate
13 | CC(=O)Oc1cccc2c1C(=O)c1c(OC(C)=O)cc(C(=O)O)cc1C2=O.CCN [DCN-ea] | 2.17 ± 0.30 µg/cm^2 | 1.79 ± 0.66 h | 0.08 ± 0.02 µg/cm^2⋅h^–1 | Equilibrium solubility PBS (pH 7.4) ([1]; PBS pH 7.4, 32 °C, 48 h): 12155.69 ± 81.21 μg/mL; Equilibrium solubility IPM ([1]; isopropyl myristate, 32 °C, 48 h): 92.80 ± 14.10 µg/mL; Equilibrium solubility Water ([1]; water, 32 °C, 48 h): 6928.52 ± 4.80 µg/mL; Log P [3]: –0.39 ± 0.007
14 | CC(=O)Oc1cccc2c1C(=O)c1c(OC(C)=O)cc(C(=O)O)cc1C2=O.NCCO [DCN-eta] | 3.04 ± 0.67 µg/cm^2 | 1.41 ± 0.56 h | 0.09 ± 0.04 µg/cm^2⋅h^–1 | solubility thermodynamic at 48 h [1, 4]: 6100 ± 24.7 µg/mL; solubility thermodynamic at 48 h [1, 5]: 121.6 ± 1.2 µg/mL; solubility thermodynamic at 48 h [1, 6]: 3060 ± 35.8 µg/mL
